Counter-ions that a name gives are not always drawn.
Assays:
[1] = Storage at elevated temperature/humidity, solid form checked by XRPD
[2] = Gravimetric Vapor Sorption (GVS); format: physicochemical; details: for GVS water uptake: 0-90% RH range, about 25° C.; for XRPD post GVS (form recovered after the experiment): after GVS cycle 0-90% RH
Method: Sorption isotherms were obtained using a SMS DVS Intrinsic moisture sorption analyzer, controlled by DVS Intrinsic Control software v1.0.1.2 (or v 1.0.1.3). The sample temperature was maintained at about 25° C. by the instrument controls. The humidity was controlled by mixing streams of dry and wet nitrogen, with a total flow rate of about 200 mL/min. The relative humidity was measured by a calibrated Rotronic probe (dynamic range of about 1.0-100% RH), located near the sample. The weight change, (mass relaxation) of the sample as a function of % RH was constantly monitored by the microbalance (accuracy ±0.005 mg). Typically, about 18-20 mg of sample was placed in a tared mesh stainless steel basket under ambient conditions. The sample was loaded and unloaded at about 40% RH and about 25° C. (typical room conditions). A moisture sorption isotherm was performed as outlined in Table 1 (2 scans giving 1 complete cycle). The standard isotherm was performed at about 25° C. at about 10% RH intervals over a 0-90% RH range. Data analysis was carried out using Microsoft Excel using DVS Analysis Suite v6.2 (or 6.1 or 6.0). The sample was recovered after completion of the isotherm and re-analysed by XRPD.

Compound | Stability on storage at 25° C./97% RH (XRPD) ([1]; 25° C./97% RH, 7 days) | Stability on storage at 40° C./75% RH (XRPD) ([1]; 40° C./75% RH, 7 days) | Stability on storage at 40° C./75% RH (XRPD), screening sample ([1]; screening sample, 40° C./75% RH, 23 days) | GVS water uptake [2] | GVS water uptake ([2]; listed as cocrystal) [% water uptake] | XRPD post GVS (form recovered after the experiment) [2] | XRPD post GVS (form recovered after the experiment) ([2]; listed as cocrystal)
CC[C@H]1[C@@H](O)[C@@H]2[C@H](CC[C@]3(C)[C@@H]([C@H](C)CCC(=O)O)CC[C@@H]23)[C@@]2(C)CC[C@@H](O)C[C@@H]12 [obeticholic acid monoammonium salt] | amorphous | unchanged | possible form change | – | – | – | –
Obeticholic acid-ursodeoxycholic acid (2:1) cocrystal [OCA:UDCA cocrystal] | – | – | – | ca. 1 % w/w | 1 | no change | Unchanged by XRPD

Source: patent publication US20210139528A1, “CRYSTALLINE FORMS OF OBETICHOLIC ACID” (INTERCEPT PHARMACEUTICALS, INC., priority 2017, published 2021)
